From the CheMixHub viscosity set
± gives the uncertainty stated by the source.

CCCCCCCCCCCCCCCC
Conditions | viscosity [mPa·s]
293.15 K, 100 kPa | 3.408 ± 0.04
293.15 K, 101 kPa | 3.408 ± 0.023
293.15 K, 102 kPa | 3.48 ± 0.03
293.2 K, 101.3 kPa | 3.507 ± 0.039
298.15 K, 101 kPa | 3.002 ± 0.03
303.15 K, 101 kPa | 2.703 ± 0.072
303.2 K, 101.3 kPa | 2.78 ± 0.031
308.15 K, 101.33 kPa | 2.381 ± 0.055
318.15 K, 100 kPa | 1.996 ± 0.024
318.15 K, 101 kPa | 1.996 ± 0.015
318.15 K, 101.33 kPa | 1.92 ± 0.045
318.16 K, 101 kPa | 2.039 ± 0.015
323.15 K, 102 kPa | 1.85 ± 0.02

CC(C)C(=O)O
viscosity [mPa·s]
Conditions | 293.15 K | 301.15 K | 302.15 K | 303.15 K | 305.15 K | 308.15 K | 311.15 K | 313.15 K | 315.15 K
101 kPa | – | 1.168 ± 0.0096 | 1.148 ± 0.007 | – | 1.099 ± 0.0067 | 1.047 ± 0.0064 | 1.008 ± 0.0062 | 0.9841 ± 0.0061 | 0.9512 ± 0.0082
101.33 kPa | 1.326 ± 0.013 | – | – | 1.12 ± 0.029 | – | – | – | 1.004 ± 0.01 | –

CCCCCCCCCC(=O)OC
100 kPa
Conditions | viscosity [mPa·s]
293.15 K | 2.115 ± 0.046
298.15 K | 1.919 ± 0.12
303.15 K | 1.745 ± 0.11
318.15 K | 1.345 ± 0.081
323.15 K | 1.243 ± 0.075
